These are literature values, as cited in patent US20240050514A1, “USE OF COMPOUND, PHARMACEUTICAL COMPOSITION FOR THE TREATMENT OF IMMUNE OR METABOLIC DISORDERS, PHARMACEUTICAL COMPOSITION FOR THE TREATMENT OF ILLNESSES CAUSED BY OR ASSOCIATED WITH VIRUSES” (PROTEIMAX BIOTECNOLOGIA LTDA., priority 2021, published 2024).

As a reminder, the Ki is the equilibrium dissociation constant of an inhibitor or competing ligand from its target.

The target in one data set is ACE (Homo sapiens, UniProt P12821). The following applies: read-out: inhibition constant Ki.
For data set [1] the following is noted: in vivo.

Chain of ACE (P12821 30-1306, species assumed): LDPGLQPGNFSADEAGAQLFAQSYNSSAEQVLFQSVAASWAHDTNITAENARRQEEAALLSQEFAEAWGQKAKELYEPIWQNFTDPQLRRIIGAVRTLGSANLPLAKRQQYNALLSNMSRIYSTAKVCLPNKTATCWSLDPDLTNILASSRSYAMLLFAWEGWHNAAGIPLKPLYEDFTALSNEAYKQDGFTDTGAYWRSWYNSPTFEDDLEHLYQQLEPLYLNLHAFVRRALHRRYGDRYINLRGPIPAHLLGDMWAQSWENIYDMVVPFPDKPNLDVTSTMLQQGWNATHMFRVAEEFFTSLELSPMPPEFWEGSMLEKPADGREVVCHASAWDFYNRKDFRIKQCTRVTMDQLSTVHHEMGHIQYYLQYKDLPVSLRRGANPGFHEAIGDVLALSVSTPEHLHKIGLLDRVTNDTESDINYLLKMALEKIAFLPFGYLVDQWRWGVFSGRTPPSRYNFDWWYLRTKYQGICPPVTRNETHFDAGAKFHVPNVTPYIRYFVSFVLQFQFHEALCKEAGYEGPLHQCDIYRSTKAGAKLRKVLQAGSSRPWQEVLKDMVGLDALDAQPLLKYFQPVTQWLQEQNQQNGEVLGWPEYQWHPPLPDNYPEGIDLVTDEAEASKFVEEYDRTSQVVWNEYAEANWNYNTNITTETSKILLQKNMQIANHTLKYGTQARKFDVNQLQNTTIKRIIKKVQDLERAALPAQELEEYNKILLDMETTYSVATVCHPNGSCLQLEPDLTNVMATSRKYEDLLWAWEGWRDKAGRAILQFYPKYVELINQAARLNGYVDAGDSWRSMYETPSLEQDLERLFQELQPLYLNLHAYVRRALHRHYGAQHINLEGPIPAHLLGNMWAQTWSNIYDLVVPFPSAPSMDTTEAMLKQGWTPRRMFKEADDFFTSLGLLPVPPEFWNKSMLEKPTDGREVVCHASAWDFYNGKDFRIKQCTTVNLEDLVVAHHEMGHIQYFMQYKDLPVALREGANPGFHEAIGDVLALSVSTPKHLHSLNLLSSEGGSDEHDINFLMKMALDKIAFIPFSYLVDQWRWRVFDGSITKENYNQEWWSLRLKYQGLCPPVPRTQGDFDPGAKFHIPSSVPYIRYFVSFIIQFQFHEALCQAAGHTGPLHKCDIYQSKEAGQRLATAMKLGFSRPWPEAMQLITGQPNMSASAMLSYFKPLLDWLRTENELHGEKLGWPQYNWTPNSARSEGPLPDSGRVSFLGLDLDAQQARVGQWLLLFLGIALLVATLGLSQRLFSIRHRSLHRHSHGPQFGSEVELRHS

In the case of `CC(C)C[C@H](NC(=O)[C@H](Cc1ccccc1)NC(=O)[C@H](CCCCN)NC(=O)[C@H](Cc1ccccc1)NC(=O)[C@H](CC(N)=O)NC(=O)[C@@H](NC(=O)[C@@H]1CCCN1)C(C)C)C(=O)N[C@@H](CO)C(=O)N[C@@H](Cc1cnc[nH]1)C(=O)O` [hemopressin, PVNFKFLSH], in the data set with rats, the “basal levels of monoamine in the prefrontal cortex” value was “reduction in the basal levels of monoamine in the prefrontal cortex”; the behavior after administration result is “induced anxiogenic and depressive behavior”. The Ki on ACE is 1.87 mM. The “crossing of the blood-brain barrier” value in data set [1] is “does not cross the blood-brain barrier”.
